Data: paper PMC9330389, “Bambus[4,6]urils as Dual Scaffolds for Multivalent Iminosugar Presentation and Ion Transport: Access to Unprecedented Glycosidase-Directed Anion Caging Agents” (Molecules, 2022)
pKi: −log10 of the molar value.

Target: T1, Jack Bean α-mannosidase (Canavalia ensiformis, UniProt C0HJB3)
T1 construct: purchased Sigma Aldrich, St. Louis, MO, USA
T1 sequence (C0HJB3 1-981): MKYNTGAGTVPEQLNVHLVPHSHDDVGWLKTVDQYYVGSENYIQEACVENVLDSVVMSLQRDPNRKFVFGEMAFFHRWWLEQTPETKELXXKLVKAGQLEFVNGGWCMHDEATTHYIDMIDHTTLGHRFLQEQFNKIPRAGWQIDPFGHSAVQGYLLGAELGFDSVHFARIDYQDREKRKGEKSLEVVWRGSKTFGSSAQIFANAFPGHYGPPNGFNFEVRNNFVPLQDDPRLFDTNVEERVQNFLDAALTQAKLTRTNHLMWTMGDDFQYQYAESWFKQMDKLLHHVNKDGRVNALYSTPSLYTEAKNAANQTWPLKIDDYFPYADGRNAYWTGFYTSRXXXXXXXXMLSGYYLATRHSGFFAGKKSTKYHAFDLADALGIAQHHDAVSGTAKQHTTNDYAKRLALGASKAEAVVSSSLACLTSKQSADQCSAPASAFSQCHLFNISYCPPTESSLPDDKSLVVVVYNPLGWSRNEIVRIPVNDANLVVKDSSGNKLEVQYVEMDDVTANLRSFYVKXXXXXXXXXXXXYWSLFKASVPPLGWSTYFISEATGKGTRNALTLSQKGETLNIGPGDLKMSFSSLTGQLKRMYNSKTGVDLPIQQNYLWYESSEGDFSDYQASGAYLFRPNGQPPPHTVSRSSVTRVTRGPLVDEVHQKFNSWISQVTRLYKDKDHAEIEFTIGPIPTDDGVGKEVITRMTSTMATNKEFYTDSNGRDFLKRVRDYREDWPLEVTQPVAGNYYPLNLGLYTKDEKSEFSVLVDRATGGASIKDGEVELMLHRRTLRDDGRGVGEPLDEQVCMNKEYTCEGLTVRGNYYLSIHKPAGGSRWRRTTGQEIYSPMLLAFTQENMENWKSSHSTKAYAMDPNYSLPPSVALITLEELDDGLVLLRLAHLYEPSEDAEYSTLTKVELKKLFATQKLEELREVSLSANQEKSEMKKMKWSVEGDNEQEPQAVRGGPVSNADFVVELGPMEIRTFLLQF
Assay: Inhibition assays on Jack-Bean α-mannosidase (p-nitrophenyl-α-D-mannopyranoside hydrolysis, Dixon and Lineweaver–Burk)
Type: biochemical
Settings: for pKi: 0.2 M acetate buffer pH 5, 25-27 °C, for mixed inhibitors the first value of the cell (Ki); for rp/n (relative potency per inhitope): n = number of inhitope units; for Rp (relative potency): rp = Ki (monovalent reference)/Ki (neoglycocluster)
Description: p-nitrophenyl-α-D-mannopyranoside and α-mannosidase (EC 3.2.1.24, from Jack Bean) were purchased from Sigma Aldrich, St. Louis, MO, USA. Inhibition constants were determined spectrophotometrically by measuring the residual hydrolytic activities of the α-mannosidase against p-nitrophenyl-α-D-mannopyranoside in the presence and absence of an inhibitor. Each well was filled with a total volume of 100 µL, containing 0.2 M acetate buffer pH 5, inhibitor, substrate and enzyme. All kinetics were performed between 25 °C and 27 °C and started by enzyme addition. After 30–50 min of incubation, the reaction was quenched by addition of 100 µL of 1M Na2CO3. The absorbance of the resulting solution was determined at 405 nm. Ki values were determined in triplicate, using the Dixon and Lineweaver–Burk graphical methods within Microsoft Excel. Stock solutions of inhibitors were prepared with DMSO/buffer for final well DMSO content under 5%. The stability of the enzyme in the presence of the same concentrations of DMSO was controlled and enzyme activity was unaffected.

Row | SMILES | Inhibition Mode | pKi | rp/n (relative potency per inhitope) | Rp (relative potency)
1 | O=C1N(Cc2cn(CCCCCCN3C[C@H](O)[C@@H](O)[C@H](O)[C@H]3CO)nn2)[C@H]2[C@@H](N1Cc1cn(CCCCCCN3C[C@H](O)[C@@H](O)[C@H](O)[C@H]3CO)nn1)N1CN3C(=O)N(CN4C(=O)N(CN5C(=O)N(CN2C1=O)[C@@H]1[C@H]5N(Cc2cn(CCCCCCN5C[C@H](O)[C@@H](O)[C@H](O)[C@H]5CO)nn2)C(=O)N1Cc1cn(CCCCCCN2C[C@H](O)[C@@H](O)[C@H](O)[C@H]2CO)nn1)[C@H]1[C@@H]4N(Cc2cn(CCCCCCN4C[C@H](O)[C@@H](O)[C@H](O)[C@H]4CO)nn2)C(=O)N1Cc1cn(CCCCCCN2C[C@H](O)[C@@H](O)[C@H](O)[C@H]2CO)nn1)[C@@H]1[C@H]3N(Cc2cn(CCCCCCN3C[C@H](O)[C@@H](O)[C@H](O)[C@H]3CO)nn2)C(=O)N1Cc1cn(CCCCCCN2C[C@H](O)[C@@H](O)[C@H](O)[C@H]2CO)nn1 [Compound 3, (DNJ-C6)8BU[4]] | competitive | 5.01 | 4 | 33
2 | O=C1N(Cc2cn(CCCCCCCCCN3C[C@H](O)[C@@H](O)[C@H](O)[C@H]3CO)nn2)C2C(N1Cc1cn(CCCCCCCCCN3C[C@H](O)[C@@H](O)[C@H](O)[C@H]3CO)nn1)N1CN3C(=O)N(CN4C(=O)N(CN5C(=O)N(CN2C1=O)C1C5N(Cc2cn(CCCCCCCCCN5C[C@H](O)[C@@H](O)[C@H](O)[C@H]5CO)nn2)C(=O)N1Cc1cn(CCCCCCCCCN2C[C@H](O)[C@@H](O)[C@H](O)[C@H]2CO)nn1)C1C4N(Cc2cn(CCCCCCCCCN4C[C@H](O)[C@@H](O)[C@H](O)[C@H]4CO)nn2)C(=O)N1Cc1cn(CCCCCCCCCN2C[C@H](O)[C@@H](O)[C@H](O)[C@H]2CO)nn1)C1C3N(Cc2cn(CCCCCCCCCN3C[C@H](O)[C@@H](O)[C@H](O)[C@H]3CO)nn2)C(=O)N1Cc1cn(CCCCCCCCCN2C[C@H](O)[C@@H](O)[C@H](O)[C@H]2CO)nn1 (stereo partly drawn) [Compound 4, (DNJ-C9)8BU[4]] | competitive | 6.15 | 33 | 265
3 | O=C1N(Cc2cn(CCCCCCCCCN3C[C@H](O)[C@@H](O)[C@H](O)[C@H]3CO)nn2)C2C(N1Cc1cn(CCCCCCCCCN3C[C@H](O)[C@@H](O)[C@H](O)[C@H]3CO)nn1)N1CN3C(=O)N(CN4C(=O)N(CN5C(=O)N(CN6C(=O)N(CN7C(=O)N(CN2C1=O)C1C7N(Cc2cn(CCCCCCCCCN7C[C@H](O)[C@@H](O)[C@H](O)[C@H]7CO)nn2)C(=O)N1Cc1cn(CCCCCCCCCN2C[C@H](O)[C@@H](O)[C@H](O)[C@H]2CO)nn1)C1C6N(Cc2cn(CCCCCCCCCN6C[C@H](O)[C@@H](O)[C@H](O)[C@H]6CO)nn2)C(=O)N1Cc1cn(CCCCCCCCCN2C[C@H](O)[C@@H](O)[C@H](O)[C@H]2CO)nn1)C1C5N(Cc2cn(CCCCCCCCCN5C[C@H](O)[C@@H](O)[C@H](O)[C@H]5CO)nn2)C(=O)N1Cc1cn(CCCCCCCCCN2C[C@H](O)[C@@H](O)[C@H](O)[C@H]2CO)nn1)C1C4N(Cc2cn(CCCCCCCCCN4C[C@H](O)[C@@H](O)[C@H](O)[C@H]4CO)nn2)C(=O)N1Cc1cn(CCCCCCCCCN2C[C@H](O)[C@@H](O)[C@H](O)[C@H]2CO)nn1)C1C3N(Cc2cn(CCCCCCCCCN3C[C@H](O)[C@@H](O)[C@H](O)[C@H]3CO)nn2)C(=O)N1Cc1cn(CCCCCCCCCN2C[C@H](O)[C@@H](O)[C@H](O)[C@H]2CO)nn1 (stereo partly drawn) [Compound 7, (DNJ-C9)12BU[6]] | competitive | 5.97 | 15 | 177
